# From patent publication US20130108562A1, “Cosmetic Composition Containing Oligopeptides” (Cognis IP Management GmbH, priority 2010, published 2013)
# Residues, ends and D or L forms follow the SMILES beside them.
# How the values were obtained:
# collagen type I = assay: Collagen type I expression by immunocytochemistry in human dermal fibroblasts; format: cell-based
# Method: The peptide Acetyl-Val-Leu-Leu-Lys was incubated on human dermal fibroblasts cultured in vitro and the expression of the collagen type I was measured using an immunocytochemistry (ICC) method.
# The human dermal fibroblasts were cultured within growth medium enriched with Foetal Calf Serum (FCS) at 10% and incubated for 2 days at 37° C. Then the growth medium was exchanged for a standard medium containing sodium ascorbyl at 5 μg/ml with FCS at 1% and with or without the Acetyl-Val-Leu-Leu-Lys peptide at 5.1 mg/ml. A positive control condition with sodium ascorbyl at 20 μg/ml was performed. Cells were incubated for 72 hours at 37° C. with the peptide. Cultured human dermal fibroblasts were fixed by acetone for 10 minutes at −20° C. and incubated for 1 hour at room temperature with a primary antibody against collagen type I [Abcam] diluted at 1/250. Fluorescein isothiocyanate (FITC) labelled secondary antibody [CliniSciences, France] was used for revelation. The obtained immuno-staining was observed using a confocal laser scanning microscope [TCS SPE, Leica, France] and quantified by an image analyzer [Quantimet Q5001W, Leica, France]. The staining occupation was evaluated. The results were presented as a mean+/−SEM (Standard Error of Mean) from 6 measures.
# [1] = tested on: collagen type XIV gene (COL14A1); assay: COL14A1 mRNA level by qRT-PCR in human dermal fibroblasts; format: cell-based; conditions: summary of Table 2
# Method: The peptide Acetyl-Val-Leu-Leu-Lys was incubated on human dermal fibroblasts cultured in vitro and the expression of the collagen type XIV gene (COL14A1) was measured using a quantitative reverse-transcription and polymerase chain reaction (qRT-PCR) method.
# (§1) The human dermal fibroblasts were cultured within growth medium enriched with FCS at 10% and incubated for 1 day at 37° C. Then the growth medium was exchanged for a standard medium without FCS but with or without the Acetyl-Val-Leu-Leu-Lys peptide at 1.0 μg/ml. Cells were then incubated for 24 hours, 48 hours or 72 hours at 37° C. before extraction of total RNA. The level of COL14A1 mRNAs in the different conditions was evaluated comparatively to the level of EEF1A1 mRNA as housekeeping gene (qRT-PCR method) for each condition.
# The results were calculated through the level of COL14A1 mRNA measured in the control condition (without peptide treatment) for the different incubation times as 100% and presented as a mean+/−SEM from 3 or 5 assays in duplicate.
# tropoelastin gene (ELN) = assay: ELN mRNA level by qRT-PCR in human dermal fibroblasts; format: cell-based; conditions: summary of Table 3
# Method: The peptide Acetyl-Val-Leu-Leu-Lys was incubated on human dermal fibroblasts cultured in vitro and the expression of the tropoelastin gene (ELN) was measured using a qRT-PCR method.
# as §1, with “were” for “were then”, “ELN” for “COL14A1”, “EEF1A 1” for “EEF1A1”, “condition. The results were calculated through the level of ELN mRNA measured in the control condition (without peptide treatment) as 100% and presented as a mean+/−SEM from 3 assays in duplicate.” for “condition.”
# [2] = tested on: glutaredoxin-2 gene (GLRX2); assay: GLRX2 mRNA level by qRT-PCR in human dermal fibroblasts; format: cell-based; conditions: summary of Table 4
# Method: The peptide Acetyl-Val-Leu-Leu-Lys was incubated on human dermal fibroblasts cultured in vitro and the expression of the glutaredoxin-2 gene (GLRX2), involved in cellular anti-oxidative defenses) was measured using a qRT-PCR method.
# The human dermal fibroblasts were cultured within growth medium enriched with FCS at 10% and incubated for 1 day at 37° C. Then the growth medium was exchanged for a standard medium without FCS with or without the Acetyl-Val-Leu-Leu-Lys peptide at 1.0 μg/ml. Cells were incubated for 6 hours at 37° C. before extraction of total RNA. The level of GLRX2 mRNAs was evaluated comparatively to the level of HPRT1 (hypoxanthine phosphoribosyltransferase I) mRNA as housekeeping gene (qRT-PCR method) for each condition.
# The results were calculated through the level of GLRX2 mRNA measured in the control condition (without peptide treatment) as 100% and presented as a mean+/−SEM from 3 assays in duplicated.
# [3] = tested on: epithelial cells from rabbit cornea; conditions: Hara et al., Exp Eye Res, 2001; cited from earlier work
# injured rabbit cornea = conditions: Hara et al., Exp Eye Res, 2001; cited from earlier work
molecule,measurement,setting,value
"CC(=O)N[C@H](C(=O)N[C@@H](CC(C)C)C(=O)N[C@@H](CC(C)C)C(=O)N[C@@H](CCCCN)C(=O)O)C(C)C [Acetyl-Val-Leu-Leu-Lys, N-Acetyl-Val-Leu-Leu-Lys-OH] (Ac-VLLK-OH)",effect on level of collagen type I (in words),collagen type I; summary of Table 1,significantly increased the level of collagen type I
same,effect on level of COL14A1 gene expression (in words),[1],specifically and significantly increased the level of COL14A1 gene expression
same,effect on level of ELN gene expression (in words),tropoelastin gene (ELN),specifically and significantly increased the level of ELN gene expression
same,effect on level of GLRX2 gene expression (in words),[2],specifically increased the level of GLRX2 gene expression
Val-Leu-Leu-His (VLLH; printed: Val-Leu-Leu-His),proliferation of epithelial cells from rabbit cornea (in words),[3],stimulate proliferation of epithelial cells from rabbit cornea
same,wound healing activity on injured rabbit cornea (in words),injured rabbit cornea,significant wound healing activity on injured rabbit cornea
sodium ascorbyl [reference compound],% of staining occupation (collagen type I immuno-staining),"collagen type I; positive control at 20 μg/ml, 72 hours, human dermal fibroblasts, mean +/− SEM from 6 measures, control 10.68 +/− 1",18.01 +/− 1.07 (**) %
